Measured values: ChEMBL document CHEMBL5113518, “Discovery of a Novel G-Quadruplex and Histone Deacetylase (HDAC) Dual-Targeting Agent for the Treatment of Triple-Negative Breast Cancer” (J Med Chem, 2022)
Activity calls are given as the source filed them. The calls are words filed in the database; no cut-off is given here.

What was measured:
Histone deacetylase [1] = assay: Inhibition of HDAC in human HeLa nuclear extract incubated for 30 mins by fluorescence-based Glo-luminescence assay; type: cell-based
Quadruplex DNA [2] = assay: Binding affinity to 5' FAM-labeled c-myc G4-quadruplex DNA Pu22 (unknown origin) by fluorescence quench assay; type: nucleic-acid assay
Quadruplex DNA [3] = details: dose 1.0 µM
Description: Binding affinity to 5' FAM and 3' TAMRA-labeled c-myc G4-quadruplex DNA Pu22 (unknown origin) assessed as change in melting temperature at 1 uM by fluorescence resonance energy transfer assay

BT-549 = assay: Cytotoxicity against human BT-549 cells harboring wild type BRCA1 and wild type BRCA2 assessed as reduction in cell viability; type: functional, cell-based
MDA-MB-468 = assay: Cytotoxicity against human MDA-MB-468 cells harboring wild type BRCA1 and BRCA2 mutant reduction in assessed as cell viability; type: functional, cell-based
MDA-MB-231 [4] = assay: Antitumor activity against human MDA-MB-231 cells xenografted in BALB/c-nu/nu mouse assessed as increment ratio at 10 mg/kg, ip measured for 31 days; type: functional; details: time 31 day
[5] = Stabilization of DNA Pu22 (unknown origin ) single strand assessed as G4-quadruplex formation up to 30 uM in presence of potassium ions by spectrum based circular dichroism analysis
Quadruplex DNA [6] = assay: Binding affinity to 5' FAM and 3' TAMRA-labeled […] (unknown origin) assessed as change in melting temperature by fluorescence resonance energy transfer assay; type: nucleic-acid assay
SUM-159-PT = assay: Cytotoxicity against human SUM159PT cells harboring wild type BRCA1 and wild type BRCA2 assessed as reduction in cell viability; type: functional, cell-based
Quadruplex DNA [7] = assay: Binding affinity to 5' FAM-labeled c-myc G4-quadruplex DNA HTG21 (unknown origin) assessed as dissociation constant by surface plasmon resonance assay; type: nucleic-acid assay
Quadruplex DNA [8] = assay: Binding affinity to 5' FAM-labeled […] (unknown origin) assessed as dissociation constant by surface plasmon resonance assay; type: nucleic-acid assay
[9] = Stabilization of DNA Pu22 (unknown origin ) single strand assessed as G4-quadruplex formation in absence of potassium ions by spectrum based circular dichroism analysis; details: dose <= 30.0 µM; DDE = dose-dependent effect
Quadruplex DNA [10] = assay: Binding affinity to 5' FAM-labeled c-myc G4-quadruplex DNA Pu22 (unknown origin) assessed as dissociation constant by surface plasmon resonance assay; type: nucleic-acid assay
Histone deacetylase [11] = assay: Inhibition of HDAC in human MDA-MB-231 cells incubated for 45 mins by luminescence assay; type: cell-based
MDA-MB-231 [12] = assay: Antitumor activity against human MDA-MB-231 cells xenografted in BALB/c-nu/nu mouse assessed as tumor growth inhibition at 10 mg/kg, ip measured for 31 days; type: functional; details: MDA-MB-231, 744 h, time 31 day, read-out: TGI
Quadruplex DNA [13] = assay: Binding affinity to 5' FAM and 3' TAMRA-labeled c-myc G4-quadruplex DNA HTG21 (unknown origin) assessed as change in melting temperature by fluorescence resonance energy transfer assay; type: nucleic-acid assay
MDA-MB-231 [14] = assay: Cytotoxicity against human MDA-MB-231 cells harboring wild type BRCA1 and wild BRCA2 assessed as reduction in cell viability; type: functional, cell-based
Quadruplex DNA [15] = assay: Binding affinity to 5' FAM and 3' TAMRA-labeled c-myc G4-quadruplex DNA duplex (unknown origin) assessed as change in melting temperature by fluorescence resonance energy transfer assay; type: nucleic-acid assay

Row | Compound | IC50 (Histone deacetylase [1]) [nM] | DC50 (Quadruplex DNA [2]) [nM] | ΔTm (Quadruplex DNA [3]) [°C] | other results
1 | CN(C)CCCNC(=O)c1ccc(/C=C2\CCn3c2nc2cc(N4CCN(CCCCCCC(=O)NO)CC4)c(F)cc2c3=O)cc1.Cl | 2100 | 1700 | 15.9 | 
2 | CN(C)CCCNC(=O)c1ccc(/C=C2\CCn3c2nc2cc(NCCCCCCC(=O)NO)c(F)cc2c3=O)cc1.Cl | 70 | 300 | 7.2 | 
3 | CN(C)CCCNC(=O)c1ccc(/C=C2\CCn3c2nc2cc(N4CCN(CCCCC(=O)NO)CC4)c(F)cc2c3=O)cc1.Cl | 1500 | 800 | 16.7 | 
4 | CN(C)CCCNC(=O)c1ccc(/C=C2\CCn3c2nc2cc(N4CCN(CCCCCCCC(=O)Nc5ccccc5N)CC4)c(F)cc2c3=O)cc1 |  | 1200 | 8.2 | 
5 | CN(C)CCCNC(=O)c1ccc(/C=C2\CCn3c2nc2cc(N4CCN(Cc5ccc(C(=O)NO)cc5)CC4)c(F)cc2c3=O)cc1.Cl | 2500 | 200 | 4.3 | 
6 | CN(C)CCCNc1cc2nc3n(c(=O)c2cc1F)CC/C3=C\c1ccc(C(=O)Nc2ccccc2N)cc1 | 5800 | 200 | 2.3 | 
7 | Nc1ccccc1NC(=O)c1ccc(CNC(=O)OCc2cccnc2)cc1 |  |  | 0.1 | 
8 | O=C(CCCCCCC(=O)Nc1ccccc1)NO [VORINOSTAT] |  |  |  | IC50 (BT-549): 2300 nM; IC50 (MDA-MB-468): 2300 nM; T/C (MDA-MB-231 [4]): 39.3%
9 | CN1CCN(c2cc3nc4n(c(=O)c3cc2F)CC/C4=C\c2ccc(C(=O)NO)cc2)CC1 |  | 2900 | 5.7 | 
10 | CCN(CC)CCCNC(=O)c1ccc(/C=C2\CCn3c2nc2cc(NCCCN4CCCC4)c(F)cc2c3=O)cc1 |  | 1400 | 17.4 | IC50 (BT-549): 14600 nM; IC50 (MDA-MB-468): 47100 nM; Activity [5]: Active; T/C (MDA-MB-231 [4]): 69.7%; ΔTm (Quadruplex DNA [6]): 6.4 °C; IC50 (SUM-159-PT): 47300 nM; Kd (Quadruplex DNA [7]): > 10000 nM; Kd (Quadruplex DNA [8]): 3600 nM; Activity [9]: Dde; Kd (Quadruplex DNA [10]): 1800 nM; IC50 (Histone deacetylase [11]): > 10000 nM; inhibition in vivo at 10 mg/kg (MDA-MB-231 [12]): 48.2%; ΔTm (Quadruplex DNA [13]): 7.3 °C; IC50 (MDA-MB-231 [14]): 10700 nM; ΔTm (Quadruplex DNA [15]): 1.8 °C
11 | CN(C)CCCNC(=O)c1ccc(/C=C2\CCn3c2nc2cc(N4CCN(Cc5ccc(/C=C/C(=O)NO)cc5)CC4)c(F)cc2c3=O)cc1.Cl | 1900 | 200 | 1.8 | 
12 | CN(C)CCCNC(=O)c1ccc(/C=C2\CCn3c2nc2cc(N4CCN(CCCC(=O)NO)CC4)c(F)cc2c3=O)cc1 |  | 1300 | 16.4 | 
13 | Cl.O=C(CCCCCCNC(=O)c1ccc(/C=C2\CCn3c2nc2cc(NCCCN4CCCC4)c(F)cc2c3=O)cc1)NO | 50 | 3000 | 3.2 | 
14 | CN(C)CCCNC(=O)c1ccc(/C=C2\CCn3c2nc2ccc(OCCCCCCC(=O)NO)cc2c3=O)cc1.Cl | 60 | 900 | 4.4 | 
15 | CN(C)CCCNC(=O)c1ccc(/C=C2\CCn3c2nc2cc(N4CCN(CCCCCC(=O)NO)CC4)c(F)cc2c3=O)cc1.Cl | 1600 | 900 | 17.3 | 
16 | CN(C)CCCNC(=O)c1ccc(/C=C2\CCn3c2nc2cc(N4CCN(Cc5ccc(/C=C/C(=O)Nc6ccccc6N)cc5)CC4)c(F)cc2c3=O)cc1 | 8100 | 300 | 0.7 | 
17 | Nc1ccccc1NC(=O)c1ccc(/C=C2\CCn3c2nc2cc(NCCCN4CCCC4)c(F)cc2c3=O)cc1 | 8600 | 600 | 0.6 | 
18 | CN1CCN(c2cc3nc4n(c(=O)c3cc2F)CC/C4=C\c2ccc(C(=O)Nc3ccccc3N)cc2)CC1 |  | 200 | 0.3 | 
